Reference: article PMC8286840, “Identifying SARS-CoV-2 antiviral compounds by screening for small molecule inhibitors of Nsp3 papain-like protease” (Biochemical Journal, 2021)
Structures can show the parent of a compound that is named as a salt. Where two headings read alike, the source gives them in different places.

Key:
[1] = target: T1, SARS-CoV-2 PLpro (nsp3 1564–1878) (Severe acute respiratory syndrome coronavirus 2, UniProt P0DTD1); experiment: biochemical; design: FRET-quenched peptide (Pro3) cleavage by PLpro, 10 min pre-incubation, slope over 20 min, normalised to no-compound control; settings: low concentration screen, read-out: % of control remaining
[2] = target: T1, SARS-CoV-2 PLpro (nsp3 1564–1878); experiment: biochemical; design: FRET-quenched peptide (Pro3) cleavage by PLpro, 10 min pre-incubation, slope over 20 min, normalised to no-compound control; settings: high concentration screen, read-out: % of control remaining

Oc1ccc(/C=C/c2cc(O)cc(O)c2)cc1 [Resveratrol]
remaining activity at 1.25 µM ([1]; Well no.=1492): 94.9% | remaining activity at 1.25 µM ([1]; Well no.=3130): 101% | remaining activity at 1.25 µM ([1]; Well no.=3847): 103% | remaining activity at 3.75 µM ([2]; Well no.=1492): 95.7% | remaining activity at 3.75 µM ([2]; Well no.=3130): 102% | remaining activity at 3.75 µM ([2]; Well no.=3847): 101%

CC1=C(/C=C/C(C)=C/C=C/C(C)=C/C(=O)Nc2ccc(O)cc2)C(C)(C)CCC1 [Retinoic acid p-hydroxyanilide]
remaining activity at 1.25 µM ([1]; Well no.=708): 97.5% | remaining activity at 3.75 µM ([2]; Well no.=708): 94.4%

CC1=C(/C=C/C(C)=C/C=C/C(C)=C/C(=O)O)C(C)(C)CCC1 [Retinoic acid]
remaining activity at 1.25 µM ([1]; Well no.=1252): 98% | remaining activity at 1.25 µM ([1]; Well no.=1628): 95.7% | remaining activity at 1.25 µM ([1]; Well no.=3132): 102% | remaining activity at 1.25 µM ([1]; Well no.=4426): 101% | remaining activity at 1.25 µM ([1]; Well no.=6163): 106% | remaining activity at 3.75 µM ([2]; Well no.=1252): 98.8% | remaining activity at 3.75 µM ([2]; Well no.=1628): 99.6% | remaining activity at 3.75 µM ([2]; Well no.=3132): 104% | remaining activity at 3.75 µM ([2]; Well no.=4426): 101% | remaining activity at 3.75 µM ([2]; Well no.=6163): 108%

CCCCCCCCCCCCCCCC(=O)OC/C=C(C)/C=C/C=C(C)/C=C/C1=C(C)CCCC1(C)C [Retinyl palmitate]
remaining activity at 1.25 µM ([1]; Well no.=4134): 96.7% | remaining activity at 3.75 µM ([2]; Well no.=4134): 97.6%

C/C=C1\C[C@@H](C)[C@](O)(CO)C(=O)OCC2=CCN3CC[C@@H](OC1=O)[C@@H]23 [Retrorsine]
remaining activity at 1.25 µM ([1]; Well no.=3298): 99.9% | remaining activity at 3.75 µM ([2]; Well no.=3298): 104%

O=C(NCCCN1CCOCC1)c1cnn2c(-c3ccccc3)cc(-c3ccccc3)nc12 [Reversan]
remaining activity at 1.25 µM ([1]; Well no.=5656): 96.9% | remaining activity at 3.75 µM ([2]; Well no.=5656): 98.2%

c1nc2c(NC3CCCCC3)nc(Nc3ccc(N4CCOCC4)cc3)nc2[nH]1 [Reversine]
remaining activity at 1.25 µM ([1]; Well no.=2621): 98.6% | remaining activity at 3.75 µM ([2]; Well no.=2621): 100%

COc1ccc(/C=C/c2cc(O)cc(O[C@@H]3O[C@H](CO)[C@@H](O)[C@H](O)[C@H]3O)c2)cc1O [Rhapontin]
remaining activity at 1.25 µM ([1]; Well no.=3300): 102% | remaining activity at 3.75 µM ([2]; Well no.=3300): 101%

c1ccc2c(-c3ccncc3)c[nH]c2c1 [Rho Kinase Inhibitor III, Rockout]
remaining activity at 1.25 µM ([1]; Well no.=2557): 101% | remaining activity at 3.75 µM ([2]; Well no.=2557): 103%

Cc1cncc2cccc(S(=O)(=O)N3CCCN(C(=O)CN)C[C@@H]3C)c12 [Rho Kinase Inhibitor IV]
remaining activity at 1.25 µM ([1]; Well no.=2559): 104% | remaining activity at 3.75 µM ([2]; Well no.=2559): 105%

C[C@@H]1O[C@@H](O[C@H]2[C@H](Oc3cc(O)c4c(=O)cc(-c5ccc(O)cc5)oc4c3)O[C@H](CO)[C@@H](O)[C@@H]2O)[C@H](O)[C@H](O)[C@H]1O [Rhoifolin]
remaining activity at 1.25 µM ([1]; Well no.=3733): 95.5% | remaining activity at 3.75 µM ([2]; Well no.=3733): 98.5%

N[C@H](Cc1c[nH]c2ccccc12)C(=O)N/N=C/c1ccc2nccnc2c1 [Rhosin (hydrochloride)]
remaining activity at 1.25 µM ([1]; Well no.=7170): 91.4% | remaining activity at 3.75 µM ([2]; Well no.=7170): 93%

NC(=O)c1ncn([C@@H]2O[C@H](CO)[C@@H](O)[C@H]2O)n1 [Ribavirin]
remaining activity at 1.25 µM ([1]; Well no.=1256): 96.8% | remaining activity at 1.25 µM ([1]; Well no.=2199): 96.4% | remaining activity at 3.75 µM ([2]; Well no.=1256): 97.1% | remaining activity at 3.75 µM ([2]; Well no.=2199): 98.2%

OC[C@@H](O)[C@@H](O)[C@@H](O)CO [Ribitol]
remaining activity at 1.25 µM ([1]; Well no.=6775): 104% | remaining activity at 3.75 µM ([2]; Well no.=6775): 102%

CCCCCC[C@@H](O)C/C=C\CCCCCCCC(=O)O [Ricinoleic acid]
remaining activity at 1.25 µM ([1]; Well no.=4484): 102% | remaining activity at 3.75 µM ([2]; Well no.=4484): 99.9%

CCC[S+]([O-])c1ccc2[nH]c(NC(=O)OC)nc2c1 (stereo not drawn) [Ricobendazole]
remaining activity at 1.25 µM ([1]; Well no.=2021): 103% | remaining activity at 3.75 µM ([2]; Well no.=2021): 106%

CO[C@H]1/C=C/O[C@@]2(C)Oc3c(C)c(O)c4c(O)c(c(/C=N/N5CCN(C)CC5)c(O)c4c3C2=O)NC(=O)/C(C)=C\C=C\[C@H](C)[C@H](O)[C@@H](C)[C@@H](O)[C@@H](C)[C@H](OC(C)=O)[C@@H]1C [Rifampicin]
remaining activity at 1.25 µM ([1]; Well no.=1668): 103% | remaining activity at 1.25 µM ([1]; Well no.=3138): 101% | remaining activity at 3.75 µM ([2]; Well no.=1668): 102% | remaining activity at 3.75 µM ([2]; Well no.=3138): 97.7%

COc1cc(OC)c(/C=C/S(=O)(=O)Cc2ccc(OC)c(NCC(=O)O)c2)c(OC)c1 [Rigosertib (sodium)]
remaining activity at 1.25 µM ([1]; Well no.=6400): 98.5% | remaining activity at 3.75 µM ([2]; Well no.=6400): 97.7%

C1COC(NC(C2CC2)C2CC2)=N1 [Rilmenidine hemifumarate]
remaining activity at 1.25 µM ([1]; Well no.=1450): 101% | remaining activity at 3.75 µM ([2]; Well no.=1450): 99.9%
